This assay concerns the target T1, 5-hydroxytryptamine receptor 1A (Rattus norvegicus, UniProt P19327).
T1 sequence (P19327 whole entry): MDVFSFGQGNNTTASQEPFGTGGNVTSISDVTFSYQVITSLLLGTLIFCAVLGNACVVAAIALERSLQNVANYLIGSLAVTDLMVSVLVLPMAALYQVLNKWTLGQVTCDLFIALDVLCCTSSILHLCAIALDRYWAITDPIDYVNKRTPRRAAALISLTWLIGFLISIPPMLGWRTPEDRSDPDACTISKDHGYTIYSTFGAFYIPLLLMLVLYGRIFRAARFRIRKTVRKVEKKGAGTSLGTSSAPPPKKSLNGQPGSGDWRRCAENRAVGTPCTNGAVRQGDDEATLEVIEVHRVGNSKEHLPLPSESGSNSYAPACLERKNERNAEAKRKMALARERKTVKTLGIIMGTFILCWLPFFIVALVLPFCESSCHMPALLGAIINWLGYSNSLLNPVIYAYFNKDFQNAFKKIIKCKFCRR

On to `CCCN(CCC)C1CCc2ccccc2C1` (centres undefined), for which the affinity, expressed as Ki, was 56.2 nM.
Take `CC(C)NCC(O)COc1cccc2[nH]c(OC(=O)OC(C)C)cc12` (centres undefined): the inhibition constant Ki (commonly a measure of affinity in units of concentration, obtained from inhibition or displacement) is 17.4 nM.
`O=C1c2ccccc2C(=O)N1CCCCN1CCN(c2cccc(Cl)c2)CC1` showed a Ki of 4.68 nM. Against the preceding compound, the Ki is about 3.7-fold lower.
In turn, `O=[N+]([O-])c1ccc2[nH]cc(C3=CCNCC3)c2c1` had a Ki of 18.2 nM.
With `CCCN(CCCCN1C(=O)c2ccccc2C1=O)C1COc2cccc(O)c2C1` (centres undefined) the figure was 44.7 nM; with `CN1CC=C(c2c[nH]c3ccc(Br)cc23)CC1`, 15.1 nM; with `CC(C)NCC(O)COc1cccc2[nH]c(C#N)cc12` (centres undefined), 2.14 nM.
Take `CCCN(CCCCCCN1C(=O)CC2(CCCC2)CC1=O)C1COc2cccc(OC)c2C1` (centres undefined): the inhibitory constant (Ki) was 0.501 nM.
For `CN(C)CCCC1(c2ccc(F)cc2)OCc2cc(C#N)ccc21` (centres undefined) [CITALOPRAM], the inhibition constant Ki is 50100 nM.
In the case of `CCCN(CCC)C1CCc2cccc(C3CCCCC3)c2C1` (centres undefined), the Ki is 24 nM.
The compound `CC(C)C(=O)N1CCN(c2cccc(Cl)c2)CC1` showed an inhibition constant Ki of 100000 nM.
On to `Clc1cccc(N2CCN(C3CC3)CC2)c1`, for which the affinity corresponds to a Ki of 158 nM. Against the preceding compound, the Ki is about 630-fold lower.
In turn, `CCCN(CCCCN1C(=O)CC2(CCCC2)CC1=O)C1COc2cccc(OC)c2C1` (centres undefined) showed an inhibitory constant (Ki) of 0.1 nM. This Ki lies about 1600-fold lower than the previous one.
`COc1c(Cl)cccc1N1CCNCC1` gave a Ki of 871 nM. This Ki lies about 8700-fold higher than the previous one.
For `O=C1c2ccccc2C(=O)N1CCCCN1CCN(c2ccccn2)CC1` the value was 6.17 nM; for `CCCN(CCCCN1C(=O)CC2(CCCC2)CC1=O)C1COc2cccc(O)c2C1` (stereo in doubt; 258), 0.501 nM; for `CN(C)CCc1c[nH]c2cc3c(cc12)CCCO3`, 603 nM.
With `CNCC(COc1cccc(C(F)(F)F)c1)c1ccccc1` (centres undefined) the figure was 66100 nM; with `CN1CC=C(c2c[nH]c3ccc(Cl)cc23)CC1`, 26.3 nM; with `CCCN(CCC)C1CCc2cccc(OC)c2C1` (centres undefined), 2.63 nM.
With `COc1ccc2[nH]cc(CCN(C)C)c2c1` [MEBUFOTENIN] the figure was 5.5 nM; with `CN(C)CCc1c[nH]c2ccc3c(c12)CCCO3`, 955 nM.
On to `COc1ccccc1N1CCN(CCCCc2ccccc2)CC1`, for which the affinity corresponds to a Ki of 1 nM. Compared with the last compound, the Ki is about 960-fold lower.
Regarding `COc1ccccc1N1CCN(CCCCNC(=O)C(C)c2ccccc2)CC1` (centres undefined), the Ki is 10 nM.
In turn, `COc1ccccc1N1CCN(CCCCNCc2ccccc2)CC1` had a Ki of 60.3 nM.
Compound `NCCc1c[nH]c2ccc(N)cc12` showed a Ki of 708 nM.
`C1=C(c2c[nH]c3ccccc23)CCNC1` showed a Ki of 141 nM.
For `CCCN(CCCN1C(=O)CC2(CCCC2)CC1=O)C1COc2cccc(OC)c2C1` (centres undefined) the value was 0.501 nM.
With `CCCN1CC=C(c2c[nH]c3ccc(C(=O)OC)cc23)CC1` the figure was 380 nM.
With `CN(C)CC(O)CO` (stereo in doubt; 123) the figure was 4900 nM; with `CCCN(CCC)C1CCc2cccc(C(=O)OC)c2C1` (centres undefined), 1.7 nM; with `O=C1CC2(CCCC2)CC(=O)N1CCCN1CCN(c2ncccn2)CC1`, 214 nM.
The compound `Clc1ccc2[nH]cc(C3=CCNCC3)c2c1` had an inhibition constant Ki of 13.2 nM.
With `COc1cccc2c1CC(N1CCCCC1)CC2` (centres undefined) the figure was 77.6 nM.
For `CC(C)NCC(O)COc1cccc2[nH]ccc12` (centres undefined) [PINDOLOL] the value was 21.9 nM; for `CCCN(CCC)CC(O)COc1cccc2ccccc12` (centres undefined), 447 nM.
As to `O=C1c2ccccc2S(=O)(=O)N1CCCCN1CCN(c2ccccn2)CC1`, the affinity, expressed as Ki, was 6.92 nM.
With `CCCN(CCCON1C(=O)CC2(CCCC2)CC1=O)C1COc2cccc(OC)c2C1` (centres undefined) the figure was 0.501 nM; with `CN1CCN(c2nc3cc(C(F)(F)F)ccc3n3cccc23)CC1`, 9.55 nM.
For the compound `CCCN(CCC)C1COc2ccccc2C1` (centres undefined), the inhibition constant Ki is 200 nM. Against the preceding compound, the Ki is about 21-fold higher.
For the compound `CCCCCCCCN1CCN(c2cccc3c2OCCO3)CC1`, the affinity corresponds to a Ki of 1 nM.
For `CCCN(CCC)C1CCc2cccc(C)c2C1` (centres undefined) the value was 61.7 nM; for `CCCN(C1COc2cccc(OC)c2C1)N1C(=O)c2ccccc2S1(=O)=O` (centres undefined), 0.501 nM.
With `COc1ccc2cccc(N3CCN(CCNC(=O)c4cccs4)CC3)c2c1` the figure was 0.562 nM.
